System: volar forearm of panellists with dry skin
Assay: Skin Moisturization (Hydration), Corneometer CM 825
Type: in vivo
Details: 15% active, baseline 46.75
Method: Skin Moisturization (Hydration). Aqueous solutions (along with formulated lotions) were applied to the volar forearm of panellists with dry skin. Solutions tested contained between 2.5 and 15% active levels of Hydroxyalkylurea and various moisturizing agents. The various individual moisturizing agents were also used in combination with Hydroxyalkylurea and the relative moisture contents in the skin were compared. Moisture levels were measured using a Corneometer® CM 825 (available from CK Industries) prior to and at various time intervals after application of forty microliters of each sample (Temperature ˜21° C., Relative Humidity ˜35%).

## NC(=O)NCCO [HAU, N-2-hydroxyethylurea]
5 min after application
  Relative Skin Moisture Content: 56.56
30 min after application
  Relative Skin Moisture Content: 60.00
1 hr after application
  Relative Skin Moisture Content: 62.95
2 hr after application
  Relative Skin Moisture Content: 62.00
